Source: ChEMBL document CHEMBL4346717, “1,2,4-Triazole-quinoline/quinolone hybrids as potential anti-bacterial agents” (Eur J Med Chem, 2019)
Converted amounts (≈) assume the structure as drawn. Values belong to the compound of their own block, whether it stands above or below them.

Assays:
Assay type in all cases: functional
Escherichia coli [1] = experiment: Antibacterial activity against Escherichia coli
Staphylococcus aureus [2] = experiment: Antibacterial activity against Staphylococcus aureus
Pseudomonas aeruginosa [3] = experiment: Antibacterial activity against Pseudomonas aeruginosa
Escherichia coli [4] = experiment: Antibacterial activity against Escherichia coli after 3 to 7 days by cup diffusion method
Staphylococcus aureus [5] = experiment: Antibacterial activity against Staphylococcus aureus assessed as zone of inhibition at 10 mg/ml after 3 to 7 days by cup diffusion method; conditions: read-out: IZ
Bacillus subtilis [6] = experiment: Antibacterial activity against Bacillus subtilis after 3 to 7 days by cup diffusion method
Escherichia coli [7] = experiment: Antibacterial activity against Escherichia coli assessed as zone of inhibition at 10 mg/ml after 3 to 7 days by cup diffusion method; conditions: read-out: IZ
[8] = test system: Aggregatibacter actinomycetemcomitans; experiment: Antibacterial activity against Aggregatibacter actinomycetemcomitans ATCC 29524 assessed as zone of inhibition at 10 mg/ml after 3 to 7 days by cup diffusion method; conditions: read-out: IZ
Bacillus subtilis [9] = experiment: Antibacterial activity against Bacillus subtilis assessed as zone of inhibition at 10 mg/ml after 3 to 7 days by cup diffusion method; conditions: read-out: IZ
Pseudomonas aeruginosa [10] = experiment: Antibacterial activity against Pseudomonas aeruginosa assessed as zone of inhibition at 10 mg/ml after 3 to 7 days by cup diffusion method; conditions: read-out: IZ
Mycolicibacterium phlei [11] = experiment: Antibacterial activity against Mycobacterium phlei clinical isolate assessed as zone of inhibition at 10 mg/ml after 3 to 7 days by cup diffusion method; conditions: read-out: IZ
Staphylococcus aureus [12] = experiment: Antibacterial activity against Staphylococcus aureus after 3 to 7 days by cup diffusion method
Mycolicibacterium phlei [13] = experiment: Antibacterial activity against Mycobacterium phlei clinical isolate after 3 to 7 days by cup diffusion method
[14] = test system: Aggregatibacter actinomycetemcomitans; experiment: Antibacterial activity against Aggregatibacter actinomycetemcomitans ATCC 29524 after 3 to 7 days by cup diffusion method
Pseudomonas aeruginosa [15] = experiment: Antibacterial activity against Pseudomonas aeruginosa after 3 to 7 days by cup diffusion method
[16] = Escherichia coli, read-out: MIC
[17] = Bacillus subtilis, read-out: MIC
[18] = Staphylococcus aureus, read-out: MIC
[19] = Mycolicibacterium phlei, read-out: MIC
[20] = Aggregatibacter actinomycetemcomitans, ATCC 29524, read-out: MIC
[21] = Pseudomonas aeruginosa, read-out: MIC

MIC (Escherichia coli [1]): 8 to 256 µg/mL (≈ 22 to 704 µM) | MIC (Staphylococcus aureus [2]): 8 to 256 µg/mL (≈ 22 to 704 µM) | MIC (Pseudomonas aeruginosa [3]): 8 to 256 µg/mL (≈ 22 to 704 µM)
Structure (SMILES): Cc1cccc2c(-c3ccccc3)cc(=O)n(Cc3nnc(S)n3N)c12

MIC (Escherichia coli [4]; [16]): 3.68 to 6.3 µM (≈ 1.86 to 3.19 µg/mL) | MIC (Bacillus subtilis [6]; [17]): 3.68 to 6.3 µM (≈ 1.86 to 3.19 µg/mL) | MIC (Staphylococcus aureus [12]; [18]): 3.68 to 6.3 µM (≈ 1.86 to 3.19 µg/mL) | MIC (Mycolicibacterium phlei [13]; [19]): 3.68 to 6.3 µM (≈ 1.86 to 3.19 µg/mL) | MIC [14, 20]: 3.68 to 6.3 µM (≈ 1.86 to 3.19 µg/mL) | MIC (Pseudomonas aeruginosa [15]; [21]): 3.68 to 6.3 µM (≈ 1.86 to 3.19 µg/mL)
Structure (SMILES): CCn1cc(-c2nc(/N=C/c3ccc(Cl)cc3Cl)n[nH]2)c(=O)c2cc(Br)c(C)nc21
zone of inhibition at 10000 µg/mL (Staphylococcus aureus [5]): 20 to 40 mm | zone of inhibition at 10000 µg/mL (Escherichia coli [7]): 20 to 40 mm | zone of inhibition at 10000 µg/mL [8]: 20 to 40 mm | zone of inhibition at 10000 µg/mL (Bacillus subtilis [9]): 20 to 40 mm | zone of inhibition at 10000 µg/mL (Pseudomonas aeruginosa [10]): 20 to 40 mm | zone of inhibition at 10000 µg/mL (Mycolicibacterium phlei [11]): 20 to 40 mm

MIC (Escherichia coli [4]): >=0.031 - 32 ug ml-1 | MIC (Bacillus subtilis [6]): >=0.031 - 32 ug ml-1 | MIC (Staphylococcus aureus [12]): >=0.031 - 32 ug ml-1 | MIC (Mycolicibacterium phlei [13]): >=0.031 - 32 ug ml-1 | MIC [14]: >=0.031 - 32 ug ml-1 | MIC (Pseudomonas aeruginosa [15]): >=0.031 - 32 ug ml-1
Structure (SMILES): CCn1cc(-c2nc(NC(=O)c3ccc(OC)cc3)n[nH]2)c(=O)c2ccc(C)nc21
zone of inhibition at 10000 µg/mL (Staphylococcus aureus [5]): 20 to 40 mm | zone of inhibition at 10000 µg/mL (Escherichia coli [7]): 20 to 40 mm | zone of inhibition at 10000 µg/mL [8]: 20 to 40 mm | zone of inhibition at 10000 µg/mL (Bacillus subtilis [9]): 20 to 40 mm | zone of inhibition at 10000 µg/mL (Pseudomonas aeruginosa [10]): 20 to 40 mm | zone of inhibition at 10000 µg/mL (Mycolicibacterium phlei [11]): 20 to 40 mm

MIC (Escherichia coli [4]): >=0.031 - 32 ug ml-1 | MIC (Bacillus subtilis [6]): >=0.031 - 32 ug ml-1 | MIC (Staphylococcus aureus [12]): >=0.031 - 32 ug ml-1 | MIC (Mycolicibacterium phlei [13]): >=0.031 - 32 ug ml-1 | MIC [14]: >=0.031 - 32 ug ml-1 | MIC (Pseudomonas aeruginosa [15]): >=0.031 - 32 ug ml-1
Structure (SMILES): CCn1cc(-c2nc(/N=C/c3ccccc3)n[nH]2)c(=O)c2ccc(C)nc21
zone of inhibition at 10000 µg/mL (Staphylococcus aureus [5]): 20 to 40 mm | zone of inhibition at 10000 µg/mL (Escherichia coli [7]): 20 to 40 mm | zone of inhibition at 10000 µg/mL [8]: 20 to 40 mm | zone of inhibition at 10000 µg/mL (Bacillus subtilis [9]): 20 to 40 mm | zone of inhibition at 10000 µg/mL (Pseudomonas aeruginosa [10]): 20 to 40 mm | zone of inhibition at 10000 µg/mL (Mycolicibacterium phlei [11]): 20 to 40 mm

Second part, the compound before the results:

Structure (SMILES): Nn1c(S)nnc1Cn1c(=O)cc(-c2ccccc2)c2ccccc21
MIC (Escherichia coli [1]): 8 to 256 µg/mL (≈ 22.9 to 733 µM) | MIC (Staphylococcus aureus [2]): 8 to 256 µg/mL (≈ 22.9 to 733 µM) | MIC (Pseudomonas aeruginosa [3]): 8 to 256 µg/mL (≈ 22.9 to 733 µM)

Structure (SMILES): Nn1c(S)nnc1Cn1c(=O)cc(-c2ccccc2)c2ccc(Cl)cc21
MIC (Escherichia coli [1]): 8 to 256 µg/mL (≈ 20.8 to 667 µM) | MIC (Staphylococcus aureus [2]): 8 to 256 µg/mL (≈ 20.8 to 667 µM) | MIC (Pseudomonas aeruginosa [3]): 8 to 256 µg/mL (≈ 20.8 to 667 µM)

Structure (SMILES): COc1ccc2c(c1)c(-c1ccccc1)cc(=O)n2Cc1nnc(S)n1N
MIC (Escherichia coli [1]): 8 to 256 µg/mL (≈ 21.1 to 675 µM) | MIC (Staphylococcus aureus [2]): 8 to 256 µg/mL (≈ 21.1 to 675 µM) | MIC (Pseudomonas aeruginosa [3]): 8 to 256 µg/mL (≈ 21.1 to 675 µM)

Structure (SMILES): CCn1cc(-c2nc(/N=C/c3ccccc3)n[nH]2)c(=O)c2cc(Br)c(C)nc21
MIC (Escherichia coli [4]; [16]): 3.68 to 6.3 µM (≈ 1.61 to 2.75 µg/mL) | zone of inhibition at 10000 µg/mL (Staphylococcus aureus [5]): 20 to 40 mm | MIC (Bacillus subtilis [6]; [17]): 3.68 to 6.3 µM (≈ 1.61 to 2.75 µg/mL) | zone of inhibition at 10000 µg/mL (Escherichia coli [7]): 20 to 40 mm | zone of inhibition at 10000 µg/mL [8]: 20 to 40 mm | zone of inhibition at 10000 µg/mL (Bacillus subtilis [9]): 20 to 40 mm | zone of inhibition at 10000 µg/mL (Pseudomonas aeruginosa [10]): 20 to 40 mm | zone of inhibition at 10000 µg/mL (Mycolicibacterium phlei [11]): 20 to 40 mm | MIC (Staphylococcus aureus [12]; [18]): 3.68 to 6.3 µM (≈ 1.61 to 2.75 µg/mL) | MIC (Mycolicibacterium phlei [13]; [19]): 3.68 to 6.3 µM (≈ 1.61 to 2.75 µg/mL) | MIC [14, 20]: 3.68 to 6.3 µM (≈ 1.61 to 2.75 µg/mL) | MIC (Pseudomonas aeruginosa [15]; [21]): 3.68 to 6.3 µM (≈ 1.61 to 2.75 µg/mL)

Structure (SMILES): CCn1cc(-c2nc(NC(=O)c3ccccc3)n[nH]2)c(=O)c2ccc(C)nc21
MIC (Escherichia coli [4]): >=0.031 - 32 ug ml-1 | zone of inhibition at 10000 µg/mL (Staphylococcus aureus [5]): 20 to 40 mm | MIC (Bacillus subtilis [6]): >=0.031 - 32 ug ml-1 | zone of inhibition at 10000 µg/mL (Escherichia coli [7]): 20 to 40 mm | zone of inhibition at 10000 µg/mL [8]: 20 to 40 mm | zone of inhibition at 10000 µg/mL (Bacillus subtilis [9]): 20 to 40 mm | zone of inhibition at 10000 µg/mL (Pseudomonas aeruginosa [10]): 20 to 40 mm | zone of inhibition at 10000 µg/mL (Mycolicibacterium phlei [11]): 20 to 40 mm | MIC (Staphylococcus aureus [12]): >=0.031 - 32 ug ml-1 | MIC (Mycolicibacterium phlei [13]): >=0.031 - 32 ug ml-1 | MIC [14]: >=0.031 - 32 ug ml-1 | MIC (Pseudomonas aeruginosa [15]): >=0.031 - 32 ug ml-1

Structure (SMILES): CCn1cc(-c2nc(/N=C/c3ccc(Cl)cc3Cl)n[nH]2)c(=O)c2ccc(C)nc21
MIC (Escherichia coli [4]): >=0.031 - 32 ug ml-1 | zone of inhibition at 10000 µg/mL (Staphylococcus aureus [5]): 20 to 40 mm | MIC (Bacillus subtilis [6]): >=0.031 - 32 ug ml-1 | zone of inhibition at 10000 µg/mL (Escherichia coli [7]): 20 to 40 mm | zone of inhibition at 10000 µg/mL [8]: 20 to 40 mm | zone of inhibition at 10000 µg/mL (Bacillus subtilis [9]): 20 to 40 mm | zone of inhibition at 10000 µg/mL (Pseudomonas aeruginosa [10]): 20 to 40 mm | zone of inhibition at 10000 µg/mL (Mycolicibacterium phlei [11]): 20 to 40 mm | MIC (Staphylococcus aureus [12]): >=0.031 - 32 ug ml-1 | MIC (Mycolicibacterium phlei [13]): >=0.031 - 32 ug ml-1 | MIC [14]: >=0.031 - 32 ug ml-1 | MIC (Pseudomonas aeruginosa [15]): >=0.031 - 32 ug ml-1

Structure (SMILES): CCn1cc(-c2nc(NC(=O)c3ccc(Cl)cc3)n[nH]2)c(=O)c2cc(Br)c(C)nc21
MIC (Escherichia coli [4]; [16]): 3.68 to 6.3 µM (≈ 1.79 to 3.07 µg/mL) | zone of inhibition at 10000 µg/mL (Staphylococcus aureus [5]): 20 to 40 mm | MIC (Bacillus subtilis [6]; [17]): 3.68 to 6.3 µM (≈ 1.79 to 3.07 µg/mL) | zone of inhibition at 10000 µg/mL (Escherichia coli [7]): 20 to 40 mm | zone of inhibition at 10000 µg/mL [8]: 20 to 40 mm | zone of inhibition at 10000 µg/mL (Bacillus subtilis [9]): 20 to 40 mm | zone of inhibition at 10000 µg/mL (Pseudomonas aeruginosa [10]): 20 to 40 mm | zone of inhibition at 10000 µg/mL (Mycolicibacterium phlei [11]): 20 to 40 mm | MIC (Staphylococcus aureus [12]; [18]): 3.68 to 6.3 µM (≈ 1.79 to 3.07 µg/mL) | MIC (Mycolicibacterium phlei [13]; [19]): 3.68 to 6.3 µM (≈ 1.79 to 3.07 µg/mL) | MIC [14, 20]: 3.68 to 6.3 µM (≈ 1.79 to 3.07 µg/mL) | MIC (Pseudomonas aeruginosa [15]; [21]): 3.68 to 6.3 µM (≈ 1.79 to 3.07 µg/mL)
